By melting point is commonly meant the temperature, or range, at which the solid turns liquid.

Consider `NCC(c1ccc(Cl)c(Cl)c1)C1CCCCC1O` (mixture of isomers), for which the melting point was in the range of 117 to 118 °C. Take `CO[C@H]1O[C@@H](C)[C@@H]2[C@H](O)[C@H]3CCCC[C@@H]3C[C@H]12`: the melting point fell in the range of 123 to 124 °C. `O=C(Nc1nnn[nH]1)c1ccccc1[N+](=O)[O-]` yielded a melting point of 272 to 273 °C. The result for `Nc1cc2c3c(cccc3c1Cl)C(=O)N(O)C2=O` reads 271 to 275 °C; that for `COC(=O)c1csnc1-c1cc(C(F)(F)F)cc(C(F)(F)F)c1`, 45 to 46.5 °C. To `N[C@@H](Cc1ccc(C(F)(F)F)cc1)[C@H](O)c1ccc(Oc2ccccc2)cc1` (racemic) belongs 114 to 115 °C.

`CNC(c1nc(-c2ccc3c(c2)Nc2ccccc2S3)cs1)C(C)C` (stereo unspecified): the melting point came out at 130 °C.

Take `COc1ccc(C(=CN(C)C)C(C)=O)cc1`: the melting point worked out at 51 °C. To `Cc1nc(Cn2nnnc2-c2cccc(Cl)c2Cl)cs1` belongs 156 to 158 °C. The result for `CCCCS(=O)(=O)Nc1cc(C(=O)Nc2ccccc2)ccc1OC` reads 182 to 183 °C.

With `CCCCOC(=O)n1c(N)nc(C#N)c1C#N`, the melting point fell in the range of 170 to 172 °C.

Turning to `O=C(Nc1ccccc1F)c1c(O)ccn2c1nc1ccccc12`, the melting point lay in the range of 237 to 238 °C. The result for `CCN(C)c1nc(-c2ccc(OC)cc2)nc2sc(C#N)c(C)c12` reads 122 to 123 °C. `CCOc1ccc(OCC(F)(F)F)cc1C(=O)O` showed a melting point of 101 to 103 °C. The result for `CSc1cccc2c1Oc1ccccc1N2[Si](C)(C)C(C)(C)C` reads 61 to 62 °C. The result for `CC1(C)CN(C2CC3(C)C(CCC4C3CCC3(C)C(C(=O)CSC#N)CCC43)CC2O)CCO1` (stereo unspecified) reads 166 °C.

`CCCc1cc(=O)oc2cc(O)cc(O)c12` gave a melting point of 227 to 229 °C.

`O=P(c1ccccc1)(c1ccccc1)C(F)F` came in with a melting point of 93 to 94 °C.

`O=C(O)CCCCCNC(=O)C(CS)Cc1ccccc1` (stereo unspecified) gave a melting point of 58 to 60 °C. To `CCC(Oc1ccc(F)cc1F)C(=O)OC1CC(O)C=C2C=CC(C)C(CCC3CC(O)CC(=O)O3)C21` (mixture of isomers) belongs 153 to 155 °C; to `Brc1ccc(-c2cc(-c3cccc(Br)c3)no2)cc1`, 169 °C; to `Nc1nc(NC2Cc3ccccc3N(C(=O)c3ccccc3)C2)c2cn[nH]c2n1` (stereo unspecified), 155 to 164 °C.

On to `CCc1ccc(C2=NC(C)(C(C)C)C(=O)N2CC(=O)O)nc1` (stereo unspecified), for which the melting point was 134 to 136 °C. `CC1(C)N=C(c2ccccc2)CC1c1ccccn1` (stereo unspecified) displayed a melting point of 101 to 102 °C.

Compound `CC(C)(C)c1nc(-c2nn(-c3ccc(F)cc3F)c3c2C2CCC3C2)n[nH]1` (stereo unspecified) returned a melting point of 268 to 269 °C. `CCOC(=O)c1cnc(-c2cccs2)s1` returned a melting point of 61 to 62 °C. In the case of `CCOC(=O)Cn1c(C(=O)OCC)cc(=O)c2cc(O)c(=O)ccc21`, the melting point fell in the range of 186 to 188 °C.

Take `Nc1ccc2ncnc(Nc3cc(Cl)c(Cl)cc3F)c2c1`: the melting point stood at 265 °C. With `CNC(=C[N+](=O)[O-])NCCSCc1ccsn1`, the melting point lay in the range of 118 to 120 °C. The compound `CC(=O)CCc1ccc2c(c1)Cc1cc(O)ccc1-2` gave a melting point of 170 °C. Take `CCOCc1nc2c(N)nc3ccccc3c2n1CCOCCNS(=O)(=O)C(C)C`: the melting point lay in the range of 139 to 142 °C.

On to `OC1CSC(Oc2cccc(-c3ccco3)c2)C(O)C1O` (stereo unspecified), for which the melting point stood at 138 °C. To `Cc1cccc(C2=C(c3ccc(S(C)(=O)=O)cc3)CN(C3CC3)C2=O)c1` belongs 136 to 137 °C.

`N#CCc1cccc(C(=O)c2ccc(Cl)cc2)c1N` displayed a melting point of 181 to 182 °C.

Compound `COc1ccccc1-c1cc(C(F)(F)F)nn1-c1ccc(S(N)(=O)=O)c(F)c1` registered a melting point of 159 to 160 °C.

Compound `CCOC(=O)C(=O)c1cn(CCN(C)C)c2ccccc12` gave a melting point of 71 to 72 °C.

These data come from a melting point compilation (Tetko et al.; mined from patent text by program, amines drawn as free bases though some values may be those of a salt).
